Consider 27 molecules from patent US8785460B2, “Tricyclic compounds and use thereof” (Takeda Pharmaceutical Company Limited, priority 2008, dated 2014).

One may read the IC50 as the point on the concentration scale where inhibition reaches its midpoint.

Structures can show the parent of a compound that is named as a salt.

This test concerns the target T1, human CRF1 receptor (Homo sapiens, UniProt P34998).
T1 construct: expressed in transfected cells; host or cells: CHO cells (membrane fraction)
T1 sequence (P34998 24-415): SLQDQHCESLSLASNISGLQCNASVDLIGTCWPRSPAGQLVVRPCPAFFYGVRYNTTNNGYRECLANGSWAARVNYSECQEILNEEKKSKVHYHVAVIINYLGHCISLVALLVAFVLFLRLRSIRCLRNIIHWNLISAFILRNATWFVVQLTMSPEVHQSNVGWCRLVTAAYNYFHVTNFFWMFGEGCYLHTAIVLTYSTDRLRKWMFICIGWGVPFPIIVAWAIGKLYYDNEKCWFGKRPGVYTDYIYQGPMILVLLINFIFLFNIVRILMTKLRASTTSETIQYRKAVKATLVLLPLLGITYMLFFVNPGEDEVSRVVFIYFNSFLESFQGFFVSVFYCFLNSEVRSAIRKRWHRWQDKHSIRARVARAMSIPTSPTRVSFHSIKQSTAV
As to the kind of experiment: Measurement of CRF Binding Inhibitory Rate (receptor binding experiment with 125I-CRF). The note with it: human CRF1 receptor expressing CHO cellular membrane fraction, 50 pM 125I-CRF, room temperature 1.5 hr, 0.05 nM to 10 μM of compound; read-out: IC50 values (CRF binding inhibition). The procedure: Measurement of CRF Binding Inhibitory Rate
A receptor binding experiment was carried out using a human CRF1 receptor expressing CHO cellular membrane fraction and ovine CRF, [^125I]-tyr^0(^125I-CRF). 1000 nM of a test compound was incubated with 1 μg of human CREF receptor expressing CHO cellular membrane fraction and 50 pM of ^125I-CRF in a binding assay buffer (50 mM Tris-HCl, 5 mM EDTA, 10 mM MgCl2, 0.05% CHAPS, 0.1% BSA, 0.5 mM PMSF, 0.1 μg/mL pepstatin, 20 μg/mL leupeptin, pH 7.5). In addition, for measuring nonspecific binding (NSB), 0.1 μM unlabelled human Urocortin was incubated with 5 μg of human CRE receptor expressing CHO cellular membrane fraction and 50 pM of ^125I-CRF in a binding assay buffer. After a binding reaction was carried out at room temperature for 1.5 hr, the membrane was entrapped on a glass filter (UniFilter plate GF-C/Perkin Elmer) by suction filtration using a cell harvester (Perkin Elmer), and washed with ice-cooled 50 mM Tris-HCl (pH 7.5). After drying the glass filter, a liquid scintillation cocktail (Microscinti 0, Perkin Elmer) was added, and the radioactivity of ^125I-CRF remaining on a glass filter was measured using Topcount (Perkin Elmer).
(TB−SB)/(TB−NSB)×100 (SB: radioactivity when a compound is added, TB: maximum binding radioactivity, NSB: nonspecific binding radioactivity) were calculated to obtain binding inhibitory rates under the range of the presence from 0.05 nM to 10 μM of each compound. The IC50 values were calculated by using GraphPad Prism software.
For `CCN(CC)c1cccc2nc3n(c12)CCCOC3c1ccc(Cl)cc1Cl` (single isomer, unassigned) [Example 485, 1-(2,4-Dichlorophenyl)-N,N-diethyl-4,5-dihydro-1H,3H-[1,4]oxazepino[4,3-a]benzimidazol-7-amine], the IC50 is less than 1000 nM.
The figure for `CCC(OC(C)=O)c1ccc(Cl)c2nc3n(c12)CCCN3c1ccc(Cl)cc1Cl` (single isomer, unassigned; (-)) [Example 239, (−)-1-[9-Chloro-1-(2,4-dichlorophenyl)-1,2,3,4-tetrahydropyrimido[1,2-a]benzimidazol-6-yl]propyl acetate] is less than 1000 nM; for `CCC(OC(C)=O)c1ccc(Cl)c2nc3n(c12)CCCN3c1ccc(OC)nc1C` (single isomer, unassigned; (-)) [Example 266, (−)-1-[9-Chloro-1-(6-methoxy-2-methylpyridin-3-yl)-1,2,3,4-tetrahydropyrimido[1,2-a]benzimidazol-6-yl]propyl acetate] it is less than 1000 nM.
For the molecule `CCC(CC)c1ccc(Cl)c2nc3n(c12)CCN3c1c(C)cc(Cl)cc1OC` [Example 1, 8-Chloro-1-(4-chloro-2-methoxy-6-methylphenyl)-5-(1-ethylpropyl)-2,3-dihydro-1H-imidazo[1,2-a]benzimidazole], the IC50 is less than 1000 nM.
Take `CCC(CC)c1ccc(Cl)c2nc3n(c12)CC(=O)N3c1c(C)cc(Cl)cc1OC` [Example 2, 8-Chloro-1-(4-chloro-2-methoxy-6-methylphenyl)-5-(1-ethylpropyl)-1H-imidazo[1,2-a]benzimidazol-2(3H)-one]: the IC50 was less than 1000 nM.
Take `CCC(CC)c1ccc(Cl)c2nc3n(c12)CCN3c1ccc(Cl)cc1C=O` [Example 6, 5-Chloro-2-[8-chloro-5-(1-ethylpropyl)-2,3-dihydro-1H-imidazo[1,2-a]benzimidazol-1-yl]benzaldehyde]: the IC50 was less than 1000 nM.
The figure for `CCC(CC)c1ccc(Cl)c2nc3n(c12)CCN3c1ccc(Cl)cc1CN(C)C` [Example 8, 1-{5-Chloro-2-[8-chloro-5-(1-ethylpropyl)-2,3-dihydro-1H-imidazo[1,2-a]benzimidazol-1-yl]phenyl}-N,N-dimethylmethanamine] is less than 1000 nM.
With `CCC(CC)c1ccc(Cl)c2nc3n(c12)CC(=O)N3c1cnc(N(C)C)cc1C` [Example 9, 8-Chloro-1-[6-(dimethylamino)-4-methylpyridin-3-yl]-5-(1-ethylpropyl)-1H-imidazo[1,2-a]benzimidazol-2(3H)-one], the half-maximal inhibitory concentration (IC50) is less than 1000 nM.
In the case of `CCC(CC)c1ccc(Cl)c2nc3n(-c4c(C)cc(Cl)cc4OC)c(Cl)cn3c12` [Example 10, 2,8-Dichloro-1-(4-chloro-2-methoxy-6-methylphenyl)-5-(1-ethylpropyl)-1H-imidazo[1,2-a]benzimidazole], the IC50 is less than 1000 nM.
On to `CCC(CC)c1ccc(Cl)c2nc3n(c12)CCN3c1ccccc1Cl` [Example 13, 8-Chloro-1-(2-chlorophenyl)-5-(1-ethylpropyl)-2,3-dihydro-1H-imidazo[1,2-a]benzimidazole], for which the IC50 was less than 1000 nM.
As for `CCC(CC)c1ccc(Cl)c2nc3n(c12)CCN3c1ccc(C=O)cc1Cl` [Example 16, 3-Chloro-4-[8-chloro-5-(1-ethylpropyl)-2,3-dihydro-1H-imidazo[1,2-a]benzimidazol-1-yl]benzaldehyde], the IC50 was less than 1000 nM.
For `CCC(CC)c1ccc(Cl)c2nc3n(c12)CCN3c1ccc(Cl)cc1C#N` [Example 18, 5-Chloro-2-[8-chloro-5-(1-ethylpropyl)-2,3-dihydro-1H-imidazo[1,2-a]benzimidazol-1-yl]benzonitrile], the IC50 is less than 1000 nM.
With `CCC(CC)c1ccc(Cl)c2nc3n(c12)CCCCN3c1c(C)nn(C)c1C` [Example 24, 10-Chloro-7-(1-ethylpropyl)-1-(1,3,5-trimethyl-1H-pyrazol-4-yl)-2,3,4,5-tetrahydro-1H-[1,3]diazepino[1,2-a]benzimidazole], the IC50 was less than 1000 nM.
For `CCC(CC)c1ccc(Cl)c2nc3n(c12)CCCCN3c1ccc(C)cc1` [Example 32, 10-Chloro-7-(1-ethylpropyl)-1-(4-methylphenyl)-2,3,4,5-tetrahydro-1H-[1,3]diazepino[1,2-a]benzimidazole], the IC50 was less than 1000 nM.
As for `CCC(CC)c1ccc(Cl)c2nc3n(c12)CCCCN3c1ccc(C)cc1CO` [Example 33, {2-[10-Chloro-7-(1-ethylpropyl)-2,3,4,5-tetrahydro-1H-[1,3]diazepino[1,2-a]benzimidazol-1-yl]-5-methylphenyl}methanol], the IC50 was less than 1000 nM.
Take `CCC(CC)c1ccc(Cl)c2nc3n(c12)CCCCN3c1ccc(C)cc1C=O` [Example 34, 2-[10-Chloro-7-(1-ethylpropyl)-2,3,4,5-tetrahydro-1H-[1,3]diazepino[1,2-a]benzimidazol-1-yl]-5-methylbenzaldehyde]: the IC50 is less than 1000 nM.
The figure for `CCC(CC)c1ccc(Cl)c2nc3n(c12)CCCCN3c1ccc(C)cc1CN(C)C` [Example 35, 1-{2-[10-Chloro-7-(1-ethylpropyl)-2,3,4,5-tetrahydro-1H-[1,3]diazepino[1,2-a]benzimidazol-1-yl]-5-methylphenyl}-N,N-dimethylmethanamine hydrochloride] is less than 1000 nM.
As to `CCC(CC)c1ccc(Cl)c2nc3n(c12)CCCCN3c1ccc(OC(F)(F)F)cc1` [Example 40, 10-Chloro-7-(1-ethylpropyl)-1-[4-(trifluoromethoxy)phenyl]-2,3,4,5-tetrahydro-1H-[1,3]diazepino[1,2-a]benzimidazole], the IC50 was less than 1000 nM.
For `CCC(CC)c1ccc(Cl)c2nc3n(c12)CCCCN3c1ccc(OC(F)(F)F)cc1C=O` [Example 41, 2-[10-Chloro-7-(1-ethylpropyl)-2,3,4,5-tetrahydro-1H-[1,3]diazepino[1,2-a]benzimidazol-1-yl]-5-(trifluoromethoxy)benzaldehyde] the value was less than 1000 nM; for `CCC(CC)c1ccc(Cl)c2nc3n(c12)CCCCN3c1ccc(OC(F)(F)F)cc1CN(C)C` [Example 42, 1-[2-[10-Chloro-7-(1-ethylpropyl)-2,3,4,5-tetrahydro-1H-[1,3]diazepino[1,2-a]benzimidazol-1-yl]-5-(trifluoromethoxy)phenyl]-N,N-dimethylmethanamine hydrochloride], less than 1000 nM.
The figure for `CCC(CC)c1ccc(Cl)c2nc3n(c12)CCCCN3c1ccc(Br)cc1C` [Example 43, 1-(4-Bromo-2-methylphenyl)-10-chloro-7-(1-ethylpropyl)-2,3,4,5-tetrahydro-1H-[1,3]diazepino[1,2-a]benzimidazole] is less than 1000 nM.
`CCC(CC)c1ccc(Cl)c2nc3n(c12)CCCCN3c1cccnc1OC` [Example 55, 10-Chloro-7-(1-ethylpropyl)-1-(2-methoxypyridin-3-yl)-2,3,4,5-tetrahydro-1H-[1,3]diazepino[1,2-a]benzimidazole]: the IC50 is less than 1000 nM.
Consider `CCC(CC)c1ccc(Cl)c2nc3n(c12)CCCCN3c1ncc(N)cc1C` [Example 65, 6-[10-Chloro-7-(1-ethylpropyl)-2,3,4,5-tetrahydro-1H-[1,3]diazepino[1,2-a]benzimidazol-1-yl]-5-methylpyridin-3-amine], for which the IC50 is less than 1000 nM.
`CCC(=O)c1cccc2nc3n(c12)CCCCN3c1ccc(Cl)cc1Cl` [Example 69, 1-[1-(2,4-Dichlorophenyl)-2,3,4,5-tetrahydro-1H-[1,3]diazepino[1,2-a]benzimidazol-7-yl]propan-1-one]: the IC50 is less than 1000 nM.
The figure for `CCC(OCCOC)c1cccc2nc3n(c12)CCCN3c1ccc(Cl)cc1Cl` (stereo not drawn) [Example 94, 1-(2,4-Dichlorophenyl)-6-[1-(2-methoxyethoxy)propyl]-1,2,3,4-tetrahydropyrimido[1,2-a]benzimidazole] is less than 1000 nM; for `CCN(CC)c1ccc(Cl)c2nc3n(c12)CCCCN3c1ccc(Cl)cc1Cl` [Example 98, 10-Chloro-1-(2,4-dichlorophenyl)-N,N-diethyl-2,3,4,5-tetrahydro-1H-[1,3]diazepino[1,2-a]benzimidazol-7-amine] it is less than 1000 nM.
On to `O=[N+]([O-])c1ccc(Cl)c2nc3n(c12)CCCN3c1ccc(Cl)cc1Cl` [Example 99, 9-Chloro-1-(2,4-dichlorophenyl)-6-nitro-1,2,3,4-tetrahydropyrimido[1,2-a]benzimidazole], for which the concentration for half-maximal inhibition (IC50) was less than 1000 nM.
